Columns and labels:
Assay type in all cases: in vivo
[1] = system: ivyleaf morningglory (Ipomoea hederacea, IPOHE); experiment: Pre-emerge greenhouse herbicide test, phytotoxicity rating; conditions: 14 days after application, rating scale 0-100
Summary of the method: (§1)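 Seeds sown in sandy loam one day before track-sprayer application of acetone solutions at 125–1000 g ai/ha (187 l/ha), then surface-watered to incorporate and bottom-watered. Injury scored visually at 14 days on a 0–100 scale (0 no damage, 100 complete death).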

[2] = system: lambsquarters (Chenopodium album, CHEAL); experiment: as above; conditions: 14 days after application, rating scale 0-100
Summary of the method: as §1

[3] = system: velvetleaf (Abutilon theophrasti, ABUTH); experiment: as above; conditions: 14 days after application, rating scale 0-100
Summary of the method: as §1

[4] = system: barnyardgrass (Echinochloa crusgalli, ECHCG); experiment: as above; conditions: 14 days after application, rating scale 0-100
Summary of the method: as §1

[5] = system: Johnsongrass (Sorghum halepense, SORHA); experiment: as above; conditions: 14 days after application, rating scale 0-100
Summary of the method: as §1

[6] = system: large crabgrass (Digitaria sanguinalis, DIGSA); experiment: as above; conditions: 14 days after application, rating scale 0-100
Summary of the method: as §1

[7] = system: common ragweed (Ambrosia artemisiifolia L., AMBEL); experiment: as above; conditions: 14 days after application, rating scale 0-100
Summary of the method: as §1

[8] = system: sicklepod (Cassia obtusifolia, CASOB); experiment: as above; conditions: 14 days after application, rating scale 0-100
Summary of the method: as §1

[9] = system: redroot pigweed (Amaranthus retroflexus, AMARE); experiment: as above; conditions: 14 days after application, rating scale 0-100
Summary of the method: as §1

[10] = system: green foxtail (Setaria viridis, SETVI); experiment: as above; conditions: 14 days after application, rating scale 0-100
Summary of the method: as §1

[11] = system: soybean (Glycine max L., var. Pella 86, SOY); experiment: Post-emerge greenhouse test, crop damage rating; set-up: key to crop damage rating SOY: 0-100 scale: 0 = no damage, 100 = complete death of all plants; conditions: 14 days after application, scale 0-100
Summary of the method: (§2)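 Plants at the 2-3 leaf stage, sown 8-21 days earlier, were track-sprayed post-emergence with compound in acetone plus 0.25% v/v non-ionic surfactant at 63-1000 g ai/ha (187 l/ha). Damage was rated at 14 days on a 0-100 scale (0 none, 100 all plants dead), for both crop injury and weed control.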

[12] = system: upland rice (Oryza sp., var.Tebonnet, RICE); experiment: Pre-emerge greenhouse test, crop damage rating; conditions: 14 days after application, rating scale 0-100
Summary of the method: as §1

[13] = system: field corn (Zea mays L., var. Dekalb 535, CORN); experiment: Pre-emerge greenhouse test, crop damage rating; conditions: 14 days after application, rating scale 0-100
Summary of the method: as §1

[14] = system: soybean (Glycine max L., var. Pella 86, SOY); experiment: Pre-emerge greenhouse test, crop damage rating; set-up: key to SOY crop damage rating: 0 = no damage, 100 = complete death of all plants; conditions: 14 days after application, rating scale 0-100
Summary of the method: as §1

[15] = system: upland rice (Oryza sp., var.Tebonnet, RICE); experiment: Post-emerge greenhouse test, crop damage rating; conditions: 14 days after application, scale 0-100
Summary of the method: as §2

[16] = system: field corn (Zea mays L., var. Dekalb 535, CORN); experiment: Post-emerge greenhouse test, crop damage rating; conditions: 14 days after application, scale 0-100
Summary of the method: as §2

[17] = system: common ragweed (Ambrosia artemisiifolia L., AMBEL); experiment: Post-emerge greenhouse herbicide test, phytotoxicity rating; conditions: 14 days after application, scale 0-100
Summary of the method: as §2

[18] = system: ivyleaf morningglory (Ipomoea hederacea, IPOHE); experiment: as above; conditions: 14 days after application, scale 0-100
Summary of the method: as §2

[19] = system: lambsquarters (Chenopodium album, CHEAL); experiment: as above; conditions: 14 days after application, scale 0-100
Summary of the method: as §2

[20] = system: velvetleaf (Abutilon theophrasti, ABUTH); experiment: as above; conditions: 14 days after application, scale 0-100
Summary of the method: as §2

[21] = system: barnyardgrass (Echinochloa crusgalli, ECHCG); experiment: as above; conditions: 14 days after application, scale 0-100
Summary of the method: as §2

[22] = system: Johnsongrass (Sorghum halepense, SORHA); experiment: as above; conditions: 14 days after application, scale 0-100
Summary of the method: as §2

[23] = system: large crabgrass (Digitaria sanguinalis, DIGSA); experiment: as above; conditions: 14 days after application, scale 0-100
Summary of the method: as §2

[24] = system: sicklepod (Cassia obtusifolia, CASOB); experiment: as above; conditions: 14 days after application, scale 0-100
Summary of the method: as §2

[25] = system: redroot pigweed (Amaranthus retroflexus, AMARE); experiment: as above; conditions: 14 days after application, scale 0-100
Summary of the method: as §2

[26] = system: green foxtail (Setaria viridis, SETVI); experiment: as above; conditions: 14 days after application, scale 0-100
Summary of the method: as §2

For `CC(C)S(=O)(=O)c1cccnc1Oc1cc(-n2c(=O)n3n(c2=S)CCCC3)c(F)cc1Cl` [Compound 8-37], which IPOHE phytotoxicity rating ([1]; Rate 125 g al/ha) is on record?
Its IPOHE phytotoxicity rating is 30.

And the IPOHE phytotoxicity rating ([1]; Rate 500 g al/ha)?
Its IPOHE phytotoxicity rating is 85.

And the CHEAL phytotoxicity rating ([2]; Rate 125 g al/ha)?
Its CHEAL phytotoxicity rating is 100.

What about the CHEAL phytotoxicity rating ([2]; Rate 500 g al/ha) of the same compound?
Its CHEAL phytotoxicity rating is 100.

What about the ABUTH phytotoxicity rating ([3]; Rate 125 g al/ha) of the same compound?
The ABUTH phytotoxicity rating was 100.

And the ABUTH phytotoxicity rating ([3]; Rate 500 g al/ha)?
The ABUTH phytotoxicity rating was 100.

What about the ECHCG phytotoxicity rating ([4]; Rate 125 g al/ha) of the same compound?
The ECHCG phytotoxicity rating was 30.

What about the ECHCG phytotoxicity rating ([4]; Rate 500 g al/ha) of the same compound?
The ECHCG phytotoxicity rating was 100.

What about the SORHA phytotoxicity rating ([5]; Rate 125 g al/ha) of the same compound?
Its SORHA phytotoxicity rating is 20.

And the SORHA phytotoxicity rating ([5]; Rate 500 g al/ha)?
Its SORHA phytotoxicity rating is 80.

What about the DIGSA phytotoxicity rating ([6]; Rate 125 g al/ha) of the same compound?
The DIGSA phytotoxicity rating was 80.

What about the DIGSA phytotoxicity rating ([6]; Rate 500 g al/ha) of the same compound?
Its DIGSA phytotoxicity rating is 100.

What about the AMBEL phytotoxicity rating ([7]; Rate 125 g al/ha) of the same compound?
Its AMBEL phytotoxicity rating is 100.

And the AMBEL phytotoxicity rating ([7]; Rate 500 g al/ha)?
The AMBEL phytotoxicity rating was 100.

What about the CASOB phytotoxicity rating ([8]; Rate 125 g al/ha) of the same compound?
Its CASOB phytotoxicity rating is 0.

What about the CASOB phytotoxicity rating ([8]; Rate 500 g al/ha) of the same compound?
The CASOB phytotoxicity rating was 80.

What about the AMARE phytotoxicity rating ([9]; Rate 125 g al/ha) of the same compound?
Its AMARE phytotoxicity rating is 100.

What about the AMARE phytotoxicity rating ([9]; Rate 500 g al/ha) of the same compound?
Its AMARE phytotoxicity rating is 100.

What about the SETVI phytotoxicity rating ([10]; Rate 125 g al/ha) of the same compound?
The SETVI phytotoxicity rating was 100.

What about the SETVI phytotoxicity rating ([10]; Rate 500 g al/ha) of the same compound?
The SETVI phytotoxicity rating was 100.

And the “crop damage rating SOY” value ([11]; rate 63 g ai/ha)?
Its value is 90.

What about the “crop damage rating SOY” value ([11]; rate 500 g ai/ha) of the same compound?
The value was 100.

What about the “RICE crop damage rating” value ([12]; Rate 125 g al/ha) of the same compound?
Its value is 10.

And the “RICE crop damage rating” value ([12]; Rate 500 g al/ha)?
Its value is 80.

And the “CORN crop damage rating” value ([13]; Rate 125 g al/ha)?
Its value is 0.

What about the “CORN crop damage rating” value ([13]; Rate 500 g al/ha) of the same compound?
The value was 25.

And the “SOY crop damage rating” value ([14]; Rate 125 g al/ha)?
The value was 50.

What about the “SOY crop damage rating” value ([14]; Rate 500 g al/ha) of the same compound?
Its value is 80.

And the “crop damage rating RICE” value ([15]; rate 63 g ai/ha)?
The value was 0.

And the “crop damage rating RICE” value ([15]; rate 500 g ai/ha)?
Its value is 35.

What about the “crop damage rating CORN” value ([16]; rate 63 g ai/ha) of the same compound?
Its value is 0.

And the “crop damage rating CORN” value ([16]; rate 500 g ai/ha)?
Its value is 40.

What about the “phytotoxicity rating AMBEL” value ([17]; rate 63 g ai/ha) of the same compound?
Its value is 30.

And the “phytotoxicity rating AMBEL” value ([17]; rate 500 g ai/ha)?
The value was 60.

What about the “phytotoxicity rating IPOHE” value ([18]; rate 63 g ai/ha) of the same compound?
Its value is 95.

And the “phytotoxicity rating IPOHE” value ([18]; rate 500 g ai/ha)?
Its value is 80.

And the “phytotoxicity rating CHEAL” value ([19]; rate 63 g ai/ha)?
The value was 90.

And the “phytotoxicity rating CHEAL” value ([19]; rate 500 g ai/ha)?
The value was 90.

What about the “phytotoxicity rating ABUTH” value ([20]; rate 63 g ai/ha) of the same compound?
Its value is 100.

What about the “phytotoxicity rating ABUTH” value ([20]; rate 500 g ai/ha) of the same compound?
Its value is 100.

And the “phytotoxicity rating ECHCG” value ([21]; rate 63 g ai/ha)?
Its value is 0.

And the “phytotoxicity rating ECHCG” value ([21]; rate 500 g ai/ha)?
Its value is 10.

What about the “phytotoxicity rating SORHA” value ([22]; rate 63 g ai/ha) of the same compound?
The value was 0.

And the “phytotoxicity rating SORHA” value ([22]; rate 500 g ai/ha)?
Its value is 50.

And the “phytotoxicity rating DIGSA” value ([23]; rate 63 g ai/ha)?
The value was 0.

And the “phytotoxicity rating DIGSA” value ([23]; rate 500 g ai/ha)?
Its value is 0.

And the “phytotoxicity rating CASOB” value ([24]; rate 63 g ai/ha)?
The value was 100.

What about the “phytotoxicity rating CASOB” value ([24]; rate 500 g ai/ha) of the same compound?
Its value is 95.

And the “phytotoxicity rating AMARE” value ([25]; rate 63 g ai/ha)?
The value was 90.

What about the “phytotoxicity rating AMARE” value ([25]; rate 500 g ai/ha) of the same compound?
Its value is 95.

What about the “phytotoxicity rating SETVI” value ([26]; rate 63 g ai/ha) of the same compound?
The value was 0.

And the “phytotoxicity rating SETVI” value ([26]; rate 500 g ai/ha)?
The value was 30.

From patent US6479435B1, “Diaryl ethers and processes for their preparation and herbicidal and desiccant compositions containing them” (ISK Americas Incorporated, priority 1997, dated 2002)
